From publication PMC6832952, “Synthesis and Evaluation of Pyrimidine Steroids as Antiproliferative Agents” (Molecules, 2019) come the findings set out here.

The test system of series [1] is A549 (non-small cell lung) cells. Kind of series: Growth inhibition assay (NCI protocol), A549. The format is cell-based, human. The conditions noted are these: Homo sapiens, A549; 48 h exposure. From the text: (§1) We studied the antiproliferative activity of α,β-unsaturated ketones (2 and 6) and steroidal pyrimidines (3 and 7) against human cell lines following the guidelines of the National Cancer Institute. For the tests we selected five human solid tumor cell lines from diverse origins and one human fibroblast cell line as a model of non-tumor cells. These cell lines were chosen as representative of drug sensitive (A549, HBL-100, and HeLa) and drug resistant (T-47D and WiDr) monolayer cultures based on previous studies. The steroidal anticancer drugs abiraterone and galeterone were also tested for comparison purposes. […] This is a relevant finding, since our compounds are non-toxic to healthy cells, whilst the steroidal anticancer drugs inhibit the growth of fibroblasts at GI50 values as low as 4.5–5 µM.
(§2) The following densities (cells per well) were used: 2500 (A549, HBL-100, HeLa and SW1573), 5000 (T-47D, WiDr and SW1573/PGP), and 7000 (BJ-hTERT). […] Abiraterone and galeterone were used as reference drugs for antiproliferative tests, verapamil was used as a P-gp transport inhibitor in SW1573/Pgp experiments, and their stock solutions were prepared in DMSO at 40 mM. Paclitaxel and vinblastine were used as positive controls in SW1573/Pgp experiments and were initially dissolved in DMSO at 4 mM. For each test compound, the cells were exposed to serial decimal dilutions in the range of 0.001–100 μM for a period of 48 h. Cell culture medium containing verapamil was prepared by adding the final concentration of verapamil of 10 μM. For each product GI50 values were calculated according to the NCI formulas.

Series [2] deals with HBL-100 (breast) cells. The experiment in a line: Growth inhibition assay (NCI protocol), HBL-100. The format is cell-based, human. The settings on record: Homo sapiens, HBL-100; 48 h exposure.
Excerpt: as §1, §2

For series [3], the system named is HeLa (cervix) cells. Kind of series: Growth inhibition assay (NCI protocol), HeLa. The format is cell-based, human. The settings on record: Homo sapiens, HeLa; 48 h exposure.
Excerpt: as §1, §2

Series [4] deals with T-47D (breast) cells. Kind of series: Growth inhibition assay (NCI protocol), T-47D. The format is cell-based, human. The conditions noted are these: Homo sapiens, T47D; 48 h exposure.
Excerpt: as §1, §2

Series [5] has as its system WiDr (colon) cells. Kind of series: Growth inhibition assay (NCI protocol), WiDr. Type of series: cell-based, human. The conditions noted are these: Homo sapiens, WiDr; 48 h exposure.
Excerpt: as §1, §2

In series [6] the test system is BJ-hTERT human fibroblast cells. The experiment in a line: Growth inhibition assay (NCI protocol), BJ-hTERT fibroblasts. The format is cell-based. The settings on record: Homo sapiens, Fibroblast; 48 h exposure; non-tumor cells.
Excerpt: as §1, §2

Series [7] concerns SW1573 (non-small cell lung) cells. Kind of series: Growth inhibition assay, SW1573 wild type. Type of series: cell-based, human. The settings on record: Homo sapiens, SW1573, 48 h, without verapamil, read-out: GI50 SW1573 w/o Verapamil. The text has this: (§3) Next, we studied if the compounds could be substrates for P-glycoprotein 1 (P-gp). P-gp is an important protein of the cell membrane that pumps xenobiotics out of cells. One of the resistance mechanisms to anticancer drugs involves the overexpression of P-gp by cancer cells, rendering these cancers multidrug resistant. Therefore, it is relevant to know whether compounds are substrates for P-gp or not. As a model to test the effect of P-gp overexpression in our compounds, we used a cell line-based assay. We selected one wild type human lung cancer cell line (SW1573) and its P-gp overexpressing variant (SW1573/PGP). In this test, cells were exposed to the compounds for 48 h in the absence or the presence of 10 µM verapamil, a well-known P-gp inhibitor [20].
(§4) The human solid tumor cell lines A549 (non-small cell lung), HBL-100 (breast), and HeLa (cervix), SW1573 (non-small cell lung), and its P-gp overexpressing variant (SW1573/Pgp), T-47D (breast), and WiDr (colon) were used in this study. These cell lines used in this study were kindly provided by Dr. Godefridus J. Peters (Cancer Center Amsterdam, Vrije Universiteit, Amsterdam, The Netherlands). BJ-hTERT human fibroblast cells were given by Dr. Raimundo Freire (Universidad de La Laguna, Canary Islands). All cells were grown in RPMI 1640 supplemented with 1 mM glutamine, 5% FBS and antibiotics. Cells were grown at 37 °C in a humidified atmosphere of 5% CO2 and maintained at low passage.
(§5) The antiproliferative activity was tested in vitro against human cancer cells using the protocol of the National Cancer Institute (NCI) of the USA16 with minor modifications. The following densities (cells per well) were used: 2500 (A549, HBL-100, HeLa and SW1573), 5000 (T-47D, WiDr and SW1573/PGP), and 7000 (BJ-hTERT). Samples for testing were dissolved initially in DMSO at 40 mM, i.e., 400 times the maximum test concentration. Abiraterone and galeterone were used as reference drugs for antiproliferative tests, verapamil was used as a P-gp transport inhibitor in SW1573/Pgp experiments, and their stock solutions were prepared in DMSO at 40 mM. Paclitaxel and vinblastine were used as positive controls in SW1573/Pgp experiments and were initially dissolved in DMSO at 4 mM. For each test compound, the cells were exposed to serial decimal dilutions in the range of 0.001–100 μM for a period of 48 h. Cell culture medium containing verapamil was prepared by adding the final concentration of verapamil of 10 μM. For each product GI50 values were calculated according to the NCI formulas.

Series [8] has as its system P-gp. The experiment in a line: in vitro. The conditions noted are these: human.
Excerpt: as §3, §4, §5

In series [9] the target is T1, P-glycoprotein 1 (P-gp) (Homo sapiens, UniProt P08183).
T1 construct: its P-gp overexpressing variant (SW1573/PGP); endogenous in cells; host or cells: SW1573 and SW1573/PGP (SW1573/Pgp) human non-small cell lung cancer cells, provided by Dr. G. J. Peters (Amsterdam)
T1 sequence (P08183 whole entry): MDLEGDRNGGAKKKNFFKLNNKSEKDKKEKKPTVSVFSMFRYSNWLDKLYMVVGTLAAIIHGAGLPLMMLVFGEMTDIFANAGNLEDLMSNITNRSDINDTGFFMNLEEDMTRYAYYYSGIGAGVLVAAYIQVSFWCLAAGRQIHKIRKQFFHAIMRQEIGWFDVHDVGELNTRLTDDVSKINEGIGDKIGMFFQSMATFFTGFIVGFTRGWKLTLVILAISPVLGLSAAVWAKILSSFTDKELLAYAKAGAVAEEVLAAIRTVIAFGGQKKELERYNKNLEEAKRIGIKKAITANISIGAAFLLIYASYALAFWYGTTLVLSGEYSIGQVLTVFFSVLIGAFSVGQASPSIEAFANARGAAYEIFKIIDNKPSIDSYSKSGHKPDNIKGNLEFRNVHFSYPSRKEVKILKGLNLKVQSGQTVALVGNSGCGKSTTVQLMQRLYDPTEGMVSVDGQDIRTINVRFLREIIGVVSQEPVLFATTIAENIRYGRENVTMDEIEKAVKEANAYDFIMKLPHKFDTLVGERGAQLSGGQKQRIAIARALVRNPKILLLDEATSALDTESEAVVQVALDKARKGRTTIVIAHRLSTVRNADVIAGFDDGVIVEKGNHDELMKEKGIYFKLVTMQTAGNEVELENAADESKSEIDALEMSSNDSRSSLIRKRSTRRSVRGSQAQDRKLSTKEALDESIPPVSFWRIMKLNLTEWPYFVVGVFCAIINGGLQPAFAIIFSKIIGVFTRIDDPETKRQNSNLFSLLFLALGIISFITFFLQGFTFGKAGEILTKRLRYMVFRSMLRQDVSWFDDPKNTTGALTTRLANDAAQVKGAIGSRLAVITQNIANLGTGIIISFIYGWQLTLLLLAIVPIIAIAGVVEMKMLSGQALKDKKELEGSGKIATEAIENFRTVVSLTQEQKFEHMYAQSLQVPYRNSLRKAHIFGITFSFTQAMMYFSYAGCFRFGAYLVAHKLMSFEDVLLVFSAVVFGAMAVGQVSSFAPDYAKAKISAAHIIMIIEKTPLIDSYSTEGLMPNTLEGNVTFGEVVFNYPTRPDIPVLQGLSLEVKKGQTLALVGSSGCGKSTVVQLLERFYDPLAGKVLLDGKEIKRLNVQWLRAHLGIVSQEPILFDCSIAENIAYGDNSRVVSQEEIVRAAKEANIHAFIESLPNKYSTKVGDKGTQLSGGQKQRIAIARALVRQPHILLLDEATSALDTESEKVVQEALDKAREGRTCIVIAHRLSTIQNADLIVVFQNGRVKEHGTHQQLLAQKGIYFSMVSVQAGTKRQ
Kind of series: P-glycoprotein assay (SW1573/PGP vs SW1573, resistance factor). The format is cell-based. The conditions noted are these: ratio between GI50 values in SW1573/PGP and SW1573 cells; for Rf w Verapamil: with 10 µM verapamil; for Rf w/o Verapamil: without verapamil.
Excerpt: as §3, §5

The test system of series [10] is human solid tumor cell lines. The experiment in a line: Antiproliferative activity against the panel of human solid tumor cell lines. The format is cell-based. The conditions noted are these: A549, HBL-100, HeLa, T-47D, WiDr, read-out: GI50 range against all tumor cells.
Excerpt: as §4
The antiproliferative activity was tested in vitro against human cancer cells using the protocol of the National Cancer Institute (NCI) of the USA16 with minor modifications. The following densities (cells per well) were used: 2500 (A549, HBL-100, HeLa and SW1573), 5000 (T-47D, WiDr and SW1573/PGP), and 7000 (BJ-hTERT). Samples for testing were dissolved initially in DMSO at 40 mM, i.e., 400 times the maximum test concentration. […] For each product GI50 values were calculated according to the NCI formulas.

Like-named read-outs stand apart in the source and are kept apart here.

In the case of `CC1=C2C(CC3C4CC=C5C[C@@H](O)CC[C@]5(C)C4CC[C@]23C)NC(=O)N1` (stereo partly drawn) [Compound 7b, 1′,3′-dihydro-4′-methyl-2′-oxopyrimidin-(6′,5′:16,17)-androst-5-en-3β-ol], the melting point (in general, the temperature, or range, at which the solid turns liquid) fell in the range of 163 to 164 °C. This molecule gave a GI50 in [1] of 13 ± 3.7 µM. Also, in series [2], the GI50 is 15 ± 3.2 µM. Moreover, the GI50 in series [3] was 3.4 ± 0.2 µM. The same molecule showed a GI50 in series [4] of 15000 ± 1900 nM. In addition, the GI50 in series [5] came to 18 ± 1.8 µM. Besides, in series [6], the GI50 is over 100 µM. Further, the GI50 in series [7] is 34 ± 4.7 µM. The GI50 at 48 h in [8] was found to be 49 ± 4.4 µM. In addition, in series [9], the “Rf w Verapamil” value worked out at 1.4 and the “Rf w/o Verapamil” value amounted to 1.5.

`CC1=C2C(CC3C4CC=C5C[C@@H](O)CC[C@]5(C)C4CC[C@]23C)NC(=S)N1` (stereo partly drawn) [Compound 7c, 1′,3′-dihydro-4′-methyl-2′-thionepyrimidin-(6′,5′:16, 17)-androst-5-en-3β-ol] came in with a melting point of 208 to 210 °C. The same molecule yielded a GI50 in series [1] of 3.4 ± 0.5 µM. Further, in [2], the GI50 was found to be 3.7 ± 1 µM. In addition, the GI50 in series [3] is 2.6 ± 0.7 µM. In addition, the GI50 in series [4] is 3000 ± 500 nM. The molecule also registered a GI50 in [5] of 3.1 ± 0.4 µM. Further, the GI50 in [6] is over 100 µM. The GI50 in [7] stood at 9.4 ± 1 µM. In [8], this molecule displayed a GI50 at 48 h of 16 ± 1.3 µM. Also, in series [9], the “Rf w Verapamil” value is 1.1 and the “Rf w/o Verapamil” value is given as 1.7. Also, the GI50 in series [10] fell in the range of 2.6 to 3.7 µM.

On to `C[C@]12CC[C@H](O)CC1=CC[C@@H]1[C@@H]2CC[C@]2(C)C(n3cnc4ccccc43)=CC[C@@H]12` [Galeterone, galeterone, reference compound], for which the GI50 in series [1] is 3.9 ± 1.3 µM; in series [2] it was 10 ± 0.9 µM; in series [3], 5.3 ± 0.4 µM; in series [4] it was 2100 ± 100 nM; in series [5], 2.7 ± 0.2 µM; in series [6] it was 5 ± 1.3 µM.

Consider `CC(=O)O[C@H]1C(=O)[C@@]2(C)[C@H]([C@H](OC(=O)c3ccccc3)[C@]3(O)C[C@H](OC(=O)[C@H](O)[C@@H](NC(=O)c4ccccc4)c4ccccc4)C(C)=C1C3(C)C)[C@]1(OC(C)=O)CO[C@@H]1C[C@@H]2O` [PTX, Paclitaxel, reference compound], for which, in series [7] (reference drugs PTX and VB), the GI50 was found to be 0.0015 ± 0.0005 µM. This molecule displayed a GI50 at 48 h in [8] of 0.196 ± 0.053 µM. Besides, in [9], the “Rf w Verapamil” value is recorded as 2.6 and the “Rf w/o Verapamil” value is recorded as 128.

Turning to `CC[C@]1(O)C[C@@H]2CN(CCc3c([nH]c4ccccc34)[C@@](C(=O)OC)(c3cc4c(cc3OC)N(C)[C@H]3[C@@](O)(C(=O)OC)[C@H](OC(C)=O)[C@]5(CC)C=CCN6CC[C@]43[C@@H]65)C2)C1` [VB, vinblastine, reference compound], the GI50 in [7] (reference drugs PTX and VB) worked out at 0.0009 ± 0.0003 µM. In series [8], this molecule yielded a GI50 at 48 h of 2.05 ± 0.682 µM. In addition, in series [9], the “Rf w Verapamil” value is 1.3 and the “Rf w/o Verapamil” value is 2388.
